For one substance, Kd results are on record in US7745001B2, “Synthesis of nanoassemblies containing luminescent quantum dots and magnetic nanoparticles” (University of New Orleans Research and Technology …, priority 2004, dated 2010).

For this assay, the target named is Concanavaline A (Con A) (Canavalia ensiformis, UniProt P02866). Nature of the assay: dextran-Con A binding (dissociation constant). An excerpt:
The glyconanospheres of the present invention can contain dextran molecules (or could contain other polysaccharides) on their surface that interact strongly with carbohydrate binding proteins. These glyconanospheres can be used for real-time monitoring of protein carbohydrate interactions. The inventors in their studies of the present invention focused on lectins, which are sugar binding proteins. In particular the inventors worked with Concanavaline A (Con A) which binds glycosylic residues in carbohydrates with high affinity (the dissociation constant of dextran-Con A was found in studies of the present inventors to be about 1 nanomolar).

One may read the Kd as the equilibrium constant for the complex coming apart. A higher Kd goes with a looser complex. As for dextran, the Kd was ~1 nM.
